Reference: patent US20100036088A1, “Selective poly-N-substituted glycine antibiotics” (priority 2008, published 2010)
Numbered stars: 1 amine (or outer) side, 2 acyl side, 3 side chain; on linkers, the order of the positions; unused ones are H or OH. Square brackets hold non-standard residues; d marks the D form. Peptide text beside a SMILES is read from it. Gly(N-CH2CH2-imidazol-4-yl) = O=C(O)CNCCc1c[nH]cn1; X3 = C[C@@H](c1ccc2ccccc2c1)N(CC(=O)[*:2])[*:1]; N(1S-Me-propyl)Gly = CC[C@H](C)NCC(=O)O; X1 = CC(C)[C@H](C)N(CC(=O)[*:2])[*:1]; Nspe = C[C@H](NCC(=O)O)c1ccccc1; Nlys = NCCCCNCC(=O)O

Legend:
[1] = system: human erythrocytes; experiment: Hemolysis assay; format: cell-based; details: for HD10 (10% hemolytic dose) / HD50 (50% hemolytic dose): red cells of human, 1 h
Experimental: Hemolysis assays. Erythrocytes were isolated from freshly drawn, heparanized human blood and resuspended to 20 vol % in PBS (pH 7.4). In a 96-well microtiter plate, 100 μL erythrocyte suspension was added to 100 μL peptoid solution in PBS (prepared by 1:2 serial dilutions), or 100 μL PBS in the case of negative controls. 100% hemolysis wells contained 100 μL blood cell suspension with 100 μL 0.2 vol % Triton X-100. The plate was incubated for 1 h at 37° C., then each well was diluted with 150 μL PBS. The plate was then centrifuged at 1200 g for 15 min, 100 μL of the supernatant from each well transferred to a fresh microtiter plate, and A350 measured.
Hemolysis assays. Erythrocytes were isolated from freshly drawn, heparanized human blood and resuspended in PBS (pH 7.4) to make a 20% volume suspension. Peptoid solutions were prepared by serial dilution (2:1) in a 96-well microtiter plate. For test wells, 100 μL of erythrocyte suspension was added to 100 μL of peptoid solution in PBS; PBS without peptoid was used as the negative control and 0.2 vol % Triton X-100 as the positive control that indicates 100% hemolysis. After 1 hour incubation at 37° C., each well was diluted with 150 μL PBS. Plates were then centrifuged at 1,200×g for 15 minutes to pellet the cells. 30 μL of the supernatant from each well were transferred to the corresponding well of a second 96-well plate that contains 70 μL PBS.

[2] = system: B. subtilis (ATCC 6633); format: cell-based; details: ATCC 6633
Experimental: (§1) Whereas the preceding generation of molecules was designed to elucidate structure function relationships of specific molecular parameters (chirality, length, hydrophobicity, etc.), another generation compounds were designed explicitly to explore effects on selectivity. Antimicrobial activity of these compounds was tested against bacterial strains E. coli (ATTC 35218) and B. subtilis (ATTC 6633) in cation-adjusted MHB using the microdilution protocols previously described. The sequences, antimicrobial activities, hemolytic activities, and metabolic inhibitory concentrations against NIH 3T3 mouse fibroblast cells are summarized in Table 3 and the rationale of their design is described below.
(§2) The potencies of all compounds were determined against representative Gram-negative (E. coli ATCC 35218) and Gram-positive (B. subtilis ATCC 6633) biosafety level 1 (BSL1) organisms. In addition to hemolytic activity, the conventional measure of toxicity to mammalian cells, the effect of each ampetoid on NIH 3T3 mouse fibroblast cells was determined using the MTS tetrazolium salt-based calorimetric assay. While hemolysis measures the degree to which erythrocytes are lysed, the MTS assay indirectly quantifies the extent to which cellular metabolic activity is inhibited.
(§3) Screening antibacterial assays. MICs were determined in 96-well microtiter plates in accordance with CLSI M7-A6 protocols. Peptoid solutions with 50 μL total volume were prepared using 2:1 serial dilutions. 50 μL of bacteria inoculum (1×10^6 CFU/mL) prepared in cation-adjusted Mueller-Hinton broth (CAMHB) was added to test wells. Control wells contained 100 μL MHB (no growth) or 50 μL inoculums with 50 μL MHB with no peptoid. […] Reported values were reproducible over three experiments, each containing two parallel trials.

[3] = system: E. coli (ATCC 35218); format: cell-based; details: ATCC 35218
Experimental: as §1, §2, §3

[4] = MTS assay, metabolic inhibition; format: cell-based, mouse
Experimental: as §2
MTS assays. NIH/3T3 cells (ATCC Corporation) cultured at 37° C. and 5% CO2 in complete Dulbecco's modified eagle's media (CDMEM) supplemented with 1% sodium pyruvate, 1% penicillin-streptomycin, 1.5 g/L NaHCO3, and 10% fetal bovine serum. Cells were seeded at a density of 5,000 cells per well for NIH/3T3 cells in 96-well plates (100 μl total volume). A peptoid solution plate (100 μL total volume per well) was prepared by serial dilution of aqueous peptoid stock solution in Hank's balanced salt solution (HBSS) media. The day-old cell monolayers were washed with HBSS and media was replaced with 100 μL HBSS. The contents of the peptoid solution plate were transferred onto corresponding wells of the cell monolayer plate, and 40 μL MTS reagent (Promega, Inc.) was added to each well. After incubating for 3 hours at 37° C., absorbance at 490 nm was determined. […] The average of six replicates is reported.

| SMILES | HD10 [1] | HD50 [1] | IC50 [4] [µM] | HD10 (10% hemolytic dose) [1] | HD50 (50% hemolytic dose) [1] | also measured |
| --- | --- | --- | --- | --- | --- | --- |
| C[C@@H](c1ccccc1)N(CC(=O)N(CCc1c[nH]cn1)CC(=O)N(CCCCN)CC(=O)N(CC(=O)N(CCc1c[nH]cn1)CC(=O)N(CCCCN)CC(=O)N(CC(=O)N(CCc1c[nH]cn1)CC(=O)N(CCCCN)CC(=O)N(CC(=O)N(CCc1c[nH]cn1)CC(N)=O)[C@@H](C)c1ccccc1)[C@@H](C)c1ccccc1)[C@@H](C)c1ccccc1)C(=O)CNCCCCN [1-Nhis3,6,9,12] (H-[Nlys][Nspe][Gly(N-CH2CH2-imidazol-4-yl)][Nlys][Nspe][Gly(N-CH2CH2-imidazol-4-yl)][Nlys][Nspe][Gly(N-CH2CH2-imidazol-4-yl)][Nlys][Nspe][Gly(N-CH2CH2-imidazol-4-yl)]-NH2) | >200/>200 μM | >200/>200 μM | – | – | – | B. subtilis MIC [2]: 100 µM; E. coli MIC [3]: >100 µM |
| C[C@H](NCC(=O)N(CC(=O)N(CCCCN)CC(=O)N(CC(=O)N(CCCCN)CC(=O)N(CC(=O)N(CCCCN)CC(=O)N(CC(=O)N(CC(=O)N(CC(=O)N(CC(=O)N(CCCCN)CC(N)=O)[C@@H](C)c1ccccc1)[C@@H](C)c1ccccc1)[C@@H](C)c1ccccc1)[C@@H](C)c1ccccc1)[C@@H](C)c1ccccc1)[C@@H](C)c1ccccc1)[C@@H](C)c1ccccc1)c1ccccc1 [1scr, H-(Nspe)2-(Nlys-Nspe)3-(Nspe)3-Nlys-NH2] (H-[Nspe][Nspe][Nlys][Nspe][Nlys][Nspe][Nlys][Nspe][Nspe][Nspe][Nspe][Nlys]-NH2) | 64 µM | > 200 µM | 8.5 | – | – | – |
| CC[C@H](C)N(CC(=O)N(CC(N)=O)[C@@H](C)c1ccc2ccccc2c1)C(=O)CN(CCCCN)C(=O)CN(C(=O)CN(C(=O)CN(CCCCN)C(=O)CN(C(=O)CN(C(=O)CN(CCCCN)C(=O)CN(C(=O)CN(C(=O)CNCCCCN)[C@@H](C)CC)[C@@H](C)c1ccccc1)[C@@H](C)CC)[C@@H](C)c1ccc2ccccc2c1)[C@@H](C)CC)[C@@H](C)c1ccccc1 [2-Nsna6,12] (H-[Nlys][N(1S-Me-propyl)Gly][Nspe][Nlys][N(1S-Me-propyl)Gly][X3][Nlys][N(1S-Me-propyl)Gly][Nspe][Nlys][N(1S-Me-propyl)Gly][X3]-NH2) | – | – | – | 55 µM | > 120 µM | – |
| C[C@@H](c1ccccc1)N(CC(N)=O)C(=O)CN(CCCCN)C(=O)CN(C(=O)CN(C(=O)CN(CCCCN)C(=O)CN(C(=O)CN(C(=O)CN(CCCCN)C(=O)CN(C(=O)CN(C(=O)CNCCCCN)[C@@H](C)c1ccccc1)[C@@H](C)c1ccccc1)[C@@H](C)c1ccccc1)[C@@H](C)c1ccccc1)[C@@H](C)c1ccccc1)[C@@H](C)c1ccccc1 [111mer, H-(Nlys-Nspe-Nspe)3-Nlys-Nspe-NH2] (H-[Nlys][Nspe][Nspe][Nlys][Nspe][Nspe][Nlys][Nspe][Nspe][Nlys][Nspe]-NH2) | 103 µM | > 200 µM | 11 | – | – | – |
| C[C@@H](c1ccccc1)N(CC(N)=O)C(=O)CN(C(=O)CN(C(=O)CN(C(=O)CN(C(=O)CN(C(=O)CN(C(=O)CN(C(=O)CN(CCCCN)C(=O)CN(CCCCN)C(=O)CN(CCCCN)C(=O)CNCCCCN)[C@@H](C)c1ccccc1)[C@@H](C)c1ccccc1)[C@@H](C)c1ccccc1)[C@@H](C)c1ccccc1)[C@@H](C)c1ccccc1)[C@@H](C)c1ccccc1)[C@@H](C)c1ccccc1 [1block, H-(Nlys)4-(Nspe)8-NH2] | – | – | – | 18 µM | 73 µM | – |
| C[C@@H](c1ccccc1)N(CC(N)=O)C(=O)CN(C(=O)CN(CCC(=O)O)C(=O)CN(C(=O)CN(C(=O)CN(CCCCN)C(=O)CN(C(=O)CN(C(=O)CN(CCC(=O)O)C(=O)CN(C(=O)CN(C(=O)CNCCCCN)[C@@H](C)c1ccccc1)[C@@H](C)c1ccccc1)[C@@H](C)c1ccccc1)[C@@H](C)c1ccccc1)[C@@H](C)c1ccccc1)[C@@H](C)c1ccccc1)[C@@H](C)c1ccccc1 [1-Nglu4,10] | – | – | – | 19 µM | 40 µM | – |
| CC[C@H](C)N(CC(=O)N(CC(=O)N(CC(=O)N(CCCCN)CC(N)=O)[C@@H](C)c1ccccc1)[C@@H](C)CC)C(=O)CN(CCCCN)C(=O)CN(C(=O)CN(CCCCN)C(=O)CN(C(=O)CN(C(=O)CN(C(=O)CN(C(=O)CNCCCCN)[C@@H](C)CC)[C@@H](C)c1ccccc1)[C@@H](C)CC)[C@@H](C)c1ccccc1)[C@@H](C)c1ccccc1 [2scrambled, H-Nlys-Nssb-Nspe-Nssb-Nspe-Nlys-Nspe-Nlys-Nssb-Nssb-Nspe-Nlys-NH2] (H-[Nlys][N(1S-Me-propyl)Gly][Nspe][N(1S-Me-propyl)Gly][Nspe][Nlys][Nspe][Nlys][N(1S-Me-propyl)Gly][N(1S-Me-propyl)Gly][Nspe][Nlys]-NH2) | – | – | – | >120/>120 μM | >120/>120 μM | no hemolysis up to [1]: > 120 µM |
| C[C@@H](c1ccccc1)N(CC(N)=O)C(=O)CN(C(=O)CN(CCC(=O)O)C(=O)CN(C(=O)CN(C(=O)CN(CCC(=O)O)C(=O)CN(C(=O)CN(C(=O)CN(CCC(=O)O)C(=O)CN(C(=O)CN(C(=O)CNCCC(=O)O)[C@@H](C)c1ccccc1)[C@@H](C)c1ccccc1)[C@@H](C)c1ccccc1)[C@@H](C)c1ccccc1)[C@@H](C)c1ccccc1)[C@@H](C)c1ccccc1)[C@@H](C)c1ccccc1 [1-Nglu1,4,7,10] | – | – | – | – | >110/>110 μM | – |
| CC(C)[C@H](C)N(CC(=O)N(CCCCN)CC(=O)N(CC(=O)N(CC(=O)N(CCCCN)CC(=O)N(CC(=O)N(CC(=O)N(CCCCN)CC(=O)N(CC(=O)N(CC(N)=O)[C@@H](C)c1ccccc1)[C@@H](C)c1ccccc1)[C@@H](C)C(C)C)[C@@H](C)C(C)C)[C@@H](C)c1ccccc1)[C@@H](C)c1ccccc1)C(=O)CN(C(=O)CNCCCCN)[C@@H](C)C(C)C [1-Nsdp2,3,8,9, H-(Nlys-Nsdp-Nsdp-Nlys-Nspe-Nspe)2-NH2] (H-[Nlys][X1][X1][Nlys][Nspe][Nspe][Nlys][X1][X1][Nlys][Nspe][Nspe]-NH2) | 77 µM | > 200 µM | 19 | – | – | – |
| C[C@@H](c1ccccc1)N(CC(N)=O)C(=O)CN(Cc1ccccc1)C(=O)CN(CCCCN)C(=O)CN(Cc1ccccc1)C(=O)CN(Cc1ccccc1)C(=O)CN(CCCCN)C(=O)CN(Cc1ccccc1)C(=O)CN(Cc1ccccc1)C(=O)CN(CCCCN)C(=O)CN(Cc1ccccc1)C(=O)CN(Cc1ccccc1)C(=O)CNCCCCN [1ach-Nspe12, H-(Nlys-Npm-Npm)3-(Nlys-Npm-Nspe)-NH2] | 164 µM | > 200 µM | 15 | – | – | B. subtilis MIC [2]: 1.6 µM |
| CC[C@H](C)N(CC(=O)N(CC(N)=O)[C@@H](C)c1ccccc1)C(=O)CN(CCCCN)C(=O)CN(C(=O)CN(C(=O)CN(CCCCN)C(=O)CN(C(=O)CN(C(=O)CN(CCCCN)C(=O)CN(C(=O)CN(C(=O)CNCCCCN)[C@@H](C)CC)[C@@H](C)c1ccccc1)[C@@H](C)CC)[C@@H](C)c1ccccc1)[C@@H](C)CC)[C@@H](C)c1ccccc1 [compound 2, H-(Nlys-Nssb-Nspe)4-NH2] (H-[Nlys][N(1S-Me-propyl)Gly][Nspe][Nlys][N(1S-Me-propyl)Gly][Nspe][Nlys][N(1S-Me-propyl)Gly][Nspe][Nlys][N(1S-Me-propyl)Gly][Nspe]-NH2) | – | – | – | >120/>120 μM | >120/>120 μM | – |
